This note sets out measurements from patent US7517874B2 (priority 2007, dated 2009).

Where two headings read alike, the source gives them in different places. Where only a bound is given, the exact number is not on record here.

One may read the EC50 as the concentration needed to bring the measured effect to its halfway point.

The target of assay [1] is human CB1 receptor (hCB1) (Homo sapiens, UniProt P21554). In words: cell-based. In kind it is cell-based. The note with it: for +/− HCB1: agonist or inverse agonist at hCB1. The method in brief:
(§1)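 Readout: LANCE TR-FRET cAMP, back-calculated from a concurrent standard curve and scaled between forskolin-only and forskolin + 1 μM CP55,940 wells. EC50 and intrinsic activity came from four-parameter fits.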

The next assay concerns the target T1, rat CB2 receptor (rCB2) (Rattus norvegicus, UniProt Q9QZN9).
T1 sequence (Q9QZN9 1-360): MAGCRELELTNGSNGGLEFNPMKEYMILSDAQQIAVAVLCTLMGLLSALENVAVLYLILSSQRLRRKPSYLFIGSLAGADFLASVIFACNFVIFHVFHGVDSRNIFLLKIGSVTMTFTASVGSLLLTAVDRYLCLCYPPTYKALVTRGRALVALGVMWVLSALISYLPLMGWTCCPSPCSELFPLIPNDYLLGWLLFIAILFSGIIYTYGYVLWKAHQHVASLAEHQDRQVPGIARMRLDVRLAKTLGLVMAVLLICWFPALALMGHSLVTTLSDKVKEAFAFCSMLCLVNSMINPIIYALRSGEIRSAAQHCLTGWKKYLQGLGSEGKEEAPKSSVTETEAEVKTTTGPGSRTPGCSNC
In words: cell-based. The note with it: for +/− RCB2: agonist or inverse agonist at rCB2. In kind it is cell-based. The method in brief:
as §1

Chain of human CB1 receptor (hCB1) (P21554 whole entry): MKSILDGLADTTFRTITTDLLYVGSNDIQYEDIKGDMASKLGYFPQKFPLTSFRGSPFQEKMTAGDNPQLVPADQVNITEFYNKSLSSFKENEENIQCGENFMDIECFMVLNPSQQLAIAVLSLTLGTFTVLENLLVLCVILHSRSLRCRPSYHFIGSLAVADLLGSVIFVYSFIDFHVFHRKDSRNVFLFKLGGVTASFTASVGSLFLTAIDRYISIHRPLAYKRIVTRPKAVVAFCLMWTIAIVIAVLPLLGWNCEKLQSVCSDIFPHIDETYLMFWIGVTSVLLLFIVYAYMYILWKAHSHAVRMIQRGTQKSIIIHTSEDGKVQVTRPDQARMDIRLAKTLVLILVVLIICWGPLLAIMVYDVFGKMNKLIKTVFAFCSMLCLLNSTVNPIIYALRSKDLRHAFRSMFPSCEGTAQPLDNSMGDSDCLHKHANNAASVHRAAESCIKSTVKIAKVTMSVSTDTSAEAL

In turn, `CCCNC(=S)N1CCn2c(-c3ccccc3)nc(C(=O)N[C@H](C(=O)NC)C(C)(C)C)c2C1` [Compound 195, (S)-N-(3,3-dimethyl-1-(methylamino)-1-oxobutan-2-yl)-3-phenyl-7-(propylcarbamothioyl)-5,6,7,8-tetrahydroimidazo[1,5-a]pyrazine-1-carboxamide] displayed an EC50 in assay [1] of more than 10000 nM. Besides, the “+/− RCB2” value at rat CB2 receptor (rCB2) is recorded as “−”.

For `CC(=O)N1CCn2c(-c3ccccc3)nc(C(=O)NCC3CCOCC3)c2C1` [Compound 176, 7-acetyl-3-phenyl-N-((tetrahydro-2H-pyran-4-yl)methyl)-5,6,7,8-tetrahydroimidazo[1,5-a]pyrazine-1-carboxamide], the figures for the concentration for a half-maximal effect (EC50) (in assay [1]; on rat CB2 receptor (rCB2)) were more than 10000 nM and more than 10 µM, respectively.

With `CNC(=O)[C@@H](NC(=O)c1nc(-c2cc(C(F)(F)F)ccc2F)n2c1CN(C)CCC2)C(C)(C)C` [Compound 363, (S)-N-(3,3-dimethyl-1-(methylamino)-1-oxobutan-2-yl)-3-(2-fluoro-5-(trifluoromethyl)phenyl)-8-methyl-6,7,8,9-tetrahydro-5H-imidazo[1,5-a][1,4]diazepine-1-carboxamide], the EC50 in assay [1] was more than 10000 nM. Also, the “+/− RCB2” value at rat CB2 receptor (rCB2) was “−”.

Molecule `Cc1noc([C@@H](NC(=O)c2nc(-c3ccccc3)n3c2CN(C2CC2)CC3)C(C)(C)C)n1` [Compound 198, (S)-7-cyclopropyl-N-(2,2-dimethyl-1-(3-methyl-1,2,4-oxadiazol-5-yl)propyl)-3-phenyl--5,6,7,8-tetrahydroimidazo[1,5-a]pyrazine-1-carboxamide] returned an EC50 in assay [1] of more than 10000 nM. Further, the “+/− RCB2” value on rat CB2 receptor (rCB2) was “−”.

As to `CNC(=O)[C@H](CC(C)(C)C)NC(=O)c1nc(-c2ccc(F)cc2)n2c1CN(C)CCC2` [Compound 547, (S)-N-(4,4-dimethyl-1-(methylamino)-1-oxopentan-2-yl)-3-(4-fluorophenyl)-8-methyl-6,7,8,9-tetrahydro-5H-imidazo[1,5-a][1,4]diazepine-1-carboxamide], the “+/− HCB1” value in assay [1] is recorded as “+”. Moreover, on rat CB2 receptor (rCB2), the “+/− RCB2” value was “+”.

In assay [1], `CNC(=O)[C@@H](NC(=O)c1nc(-c2ccccc2)n2c1CN(CC(C)C)CC2)C(C)(C)C` [Compound 148, (S)-N-(3,3-dimethyl-1-(methylamino)-1-oxobutan-2-yl)-7-isobutyl-3-phenyl-5,6,7,8-tetrahydroimidazo[1,5-a]pyrazine-1-carboxamide] had an EC50 of more than 10000 nM. Also, the “+/− RCB2” value at rat CB2 receptor (rCB2) is “−”.

In assay [1], `CC(C)(C)c1noc([C@@H](NC(=O)c2nc(-c3ccccc3)n3c2CN(C2CC2)CC3)C(C)(C)C)n1` [Compound 284, (S)-N-(1-(3-tert-butyl-1,2,4-oxadiazol-5-yl)-2,2-dimethylpropyl)-7-cyclopropyl-3-phenyl-5,6,7,8-tetrahydroimidazo[1,5-a]pyrazine-1-carboxamide] yielded an EC50 of more than 10000 nM. The “+/− RCB2” value at rat CB2 receptor (rCB2) is “−”.

As to `CNC(=O)[C@H](Cc1cscn1)NC(=O)c1nc(-c2cc(F)c(F)cc2F)n2c1CN(C)CCC2` [Compound 592, (S)-8-methyl-N-(1-(methylamino)-1-oxo-3-(thiazol-4-yl)propan-2-yl)-3-(2,4,5-trifluorophenyl)-6,7,8,9-tetrahydro-5H-imidazo[1,5-a][1,4]diazepine-1-carboxamide], the EC50 in assay [1] is more than 10000 nM; on rat CB2 receptor (rCB2), more than 10 µM.

For the molecule `CNC(=O)[C@@H](NC(=O)c1nc(-c2ccccc2)n2c1CN(C(=O)c1ccccc1)CCC2)C(C)(C)C` [Compound 462, (S)-8-benzoyl-N-(3,3-dimethyl-1-(methylamino)-1-oxobutan-2-yl)-3-phenyl-6,7,8,9-tetrahydro-5H-imidazo[1,5-a][1,4]diazepine-1-carboxamide], the EC50 in assay [1] was more than 10000 nM; on rat CB2 receptor (rCB2), more than 10 µM.

`CNC(=O)[C@@H](NC(=O)c1nc(/C=C/C2CCCCC2)n2c1CN(C)CCC2)C(C)(C)C` [Compound 439] showed an EC50 in assay [1] of more than 10000 nM. Also, on rat CB2 receptor (rCB2), the “+/− RCB2” value is given as “+”.

Regarding `CNC(=O)[C@@H](NC(=O)c1nc(-c2cscc2C)n2c1CN(C)CCC2)C(C)(C)C` [Compound 352, (S)-N-(3,3-dimethyl-1-(methylamino)-1-oxobutan-2-yl)-8-methyl-3-(4-methylthiophen-3-yl)-6,7,8,9-tetrahydro-5H-imidazo[1,5-a][1,4]diazepine-1-carboxamide], in assay [1], the EC50 is more than 10000 nM. On rat CB2 receptor (rCB2), the “+/− RCB2” value is given as “+”.

Take `CNC(=O)[C@@H](NC(=O)c1nc(C2=CCCCC2)n2c1CN(C)CC2)C(C)(C)C` [Compound 256]: the EC50 in assay [1] was more than 10000 nM. The “+/− RCB2” value at rat CB2 receptor (rCB2) is given as “+”.

On to `CN1CCn2c(-c3ccccc3)nc(C(=O)N3CCOCC3)c2C1` [Compound 69, (7-methyl-3-phenyl-5,6,7,8-tetrahydroimidazo[1,5-a]pyrazin-1-yl)(morpholino)methanone], for which the EC50 in assay [1] (groups >100 nM-10 μM and >10 μM, cAMP, CHO-K1 hCB1, read-out: EC50 HCB1) was more than 10000 nM. The “+/− RCB2” value at rat CB2 receptor (rCB2) is reported as “−”.

Consider `CNC(=O)[C@@H](NC(=O)c1nc(/C=C/C(C)(C)C)n2c1CN(C)CCC2)C(C)(C)C` [Compound 397, (S,E)-N-(3,3-dimethyl-1-(methylamino)-1-oxobutan-2-yl)-3-(3,3-dimethylbut-1-enyl)-8-methyl-6,7,8,9-tetrahydro-5H-imidazo[1,5-a][1,4]diazepine-1-carboxamide], for which the “+/− HCB1” value in assay [1] is listed as “+”. Moreover, at rat CB2 receptor (rCB2), the “+/− RCB2” value is “+”.

As to `Cc1nnc(C)n1C1CCN(C(=O)c2nc(-c3ccc(Cl)cc3F)n3c2CN(C)CC3)CC1` [Compound 223, (3-(4-chloro-2-fluorophenyl)-7-methyl-5,6,7,8-tetrahydroimidazo[1,5-a]pyrazin-1-yl)(4-(3,5-dimethyl-4H-1,2,4-triazol-4-yl)piperidin-1-yl)methanone], the EC50 in assay [1] was more than 10000 nM; on rat CB2 receptor (rCB2), more than 10 µM.

As for `CNC(=O)[C@@H](NC(=O)c1nc(-c2ccc(F)c(C)c2)n2c1CN(C)CCC2)C(C)(C)C` [Compound 347, (S)-N-(3,3-dimethyl-1-(methylamino)-1-oxobutan-2-yl)-3-(4-fluoro-3-methylphenyl)-8-methyl-6,7,8,9-tetrahydro-5H-imidazo[1,5-a][1,4]diazepine-1-carboxamide], the values for the EC50 (in assay [1]; at rat CB2 receptor (rCB2)) were more than 10000 nM and more than 10 µM, respectively.

In the case of `Cc1ccc(-c2nc(C(=O)N[C@H](c3nc(C)no3)C(C)(C)C)c3n2CCCN(C)C3)c(F)c1` [Compound 522, (S)-N-(2,2-dimethyl-1-(3-methyl-1,2,4-oxadiazol-5-yl)propyl)-3-(2-fluoro-4-methylphenyl)-8-methyl-6,7,8,9-tetrahydro-5H-imidazo[1,5-a][1,4]diazepine-1-carboxamide], the EC50 in assay [1] is more than 10000 nM. For the same molecule, the “+/− RCB2” value at rat CB2 receptor (rCB2) is “−”.

With `CNC(=O)[C@@H](NC(=O)c1nc(-c2ccsc2)n2c1CN(C)CCC2)C(C)(C)C` [Compound 329, (S)-N-(3,3-dimethyl-1-(methylamino)-1-oxobutan-2-yl)-8-methyl-3-(thiophen-3-yl)-6,7,8,9-tetrahydro-5H-imidazo[1,5-a][1,4]diazepine-1-carboxamide], the EC50 in assay [1] is more than 10000 nM. Also, the “+/− RCB2” value at rat CB2 receptor (rCB2) was “+”.

In turn, `CNC(=O)[C@H](CC(C)C)NC(=O)c1nc(-c2ccc(Cl)cc2F)n2c1CN(C)CC2` [Compound 276, (S)-3-(4-chloro-2-fluorophenyl)-7-methyl-N-(4-methyl-1-(methylamino)-1-oxopentan-2-yl)-5,6,7,8-tetrahydroimidazo[1,5-a]pyrazine-1-carboxamide] came in with an EC50 in assay [1] of more than 10000 nM. Also, the “+/− RCB2” value at rat CB2 receptor (rCB2) is recorded as “−”.
